Consider 3 molecules from publication PMC5128743, “Marine Fungi as Producers of Benzocoumarins, a New Class of Inhibitors of Glycogen-Synthase-Kinase 3β” (Marine Drugs, 2016).

Like-named read-outs stand apart in the source and are kept apart here.

The subject of data set [1] is HepG2. Kind of data set: Cytotoxic activity against cancer cell line HepG2. The note with it: concentration not given. Here is the method: (§1) The assay is based on the phosphorylation of a peptide by the enzyme with ATP as phosphate donor. ATP, luciferin, and oxygen react to oxyluciferin, which is measured as a luminescence signal. The more the enzyme is inhibited, the stronger the luminescence signals are because of high ATP levels. 20 μL substrate solution (2 μM ATP, 40 μM peptide HSSPHQ-pSer-EDEEE (BIOSYNTAN, Berlin, Germany)) and 10 μL enzyme solution (12 mU GSK-3β (N-terminal His6-tagged recombinant human GSK3β with an H350L mutation, EMD Millipore, Billerica, MA, USA)) were incubated for 60 min at 25 °C. Then 40 μL Kinase-Glo reagent (Kinase-Glo Luminescent Assay Kit, Promega, Darmstadt, Germany) was added. After centrifugation and incubation for 10 min at 25 °C, the luminescence was measured. […] The antimicrobial activities of compounds 1, 2, and 3 against the bacterium Bacillus subtilis (DSM 347) and the human pathogenic yeast Candida albicans (DSM 1386) were determined according to Ohlendorf et al.. The determination of inhibitory activities against Xanthomonas campestris, Septoria tritici, and Propionibacterium acnes, as well as the cytotoxic activity against the cell line […] was carried out as described by Schneemann et al..

For data set [2], the system named is Staphylococcus lentus. Kind of data set: Growth inhibition of Staphylococcus lentus. In kind it is cell-based. The note with it: Mammaliicoccus lentus; test concentration of 100 μM; read-out: inhibition of growth of S. lentus.
Data set [3] concerns Bacillus subtilis (DSM 347). Kind of data set: Growth inhibition of Bacillus subtilis. The data set is classed as cell-based. Here is the method: as §1
Data set [4] concerns the target T1, GSK-3β (N-terminal His6-tagged recombinant human GSK3β with an H350L mutation) (Homo sapiens, UniProt P49841).
T1 construct: His6 (N); purchased EMD Millipore, Billerica, MA, USA
As to the kind of experiment: GSK-3β luminescent (Kinase-Glo) inhibition assay. The data set is classed as biochemical. Here is the method: as §1
On the technique in general: Kinase-Glo reads ATP consumption through a luciferase reaction.

Data set [5] deals with HMGCoA (3-hydroxy-3-methylglutaryl coenzyme A reductase). On the set-up: method as in PMID 1880066. The settings on record: cited from earlier work.
[6] abbreviates: DSM347, read-out: inhibition of growth of B. subtilis.
[7] abbreviates: luminescent assay, 2 μM ATP substrate solution, 60 min at 25 °C.

T1 sequence (P49841 whole entry, stated change not applied): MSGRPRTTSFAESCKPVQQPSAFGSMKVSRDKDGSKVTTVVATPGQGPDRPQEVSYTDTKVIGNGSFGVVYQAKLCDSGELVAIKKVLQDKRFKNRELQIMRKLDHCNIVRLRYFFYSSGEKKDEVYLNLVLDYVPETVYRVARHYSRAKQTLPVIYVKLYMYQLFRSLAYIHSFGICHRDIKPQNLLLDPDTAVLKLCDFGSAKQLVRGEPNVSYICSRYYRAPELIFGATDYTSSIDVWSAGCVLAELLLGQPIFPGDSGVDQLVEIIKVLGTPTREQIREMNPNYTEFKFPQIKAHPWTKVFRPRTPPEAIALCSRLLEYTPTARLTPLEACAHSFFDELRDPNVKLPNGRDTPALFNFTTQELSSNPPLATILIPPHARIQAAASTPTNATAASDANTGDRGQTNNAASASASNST

On to `COc1cc(O)c2c(=O)oc3cc(O)cc(C)c3c2c1` [Compound 3, alternariol-9-methylether], for which, in data set [1], the “inhibition (cytotoxic effect) of cancer cell line HepG2” value (“inhibition (cytotoxic effect)” below) is reported as “lower than 35%”. In addition, the results for the inhibition at 100 µM in data set [2] and in data set [3] (setting [6]) were 25% and 82%, respectively. Besides, in data set [4], the IC50 was found to be 200 ± 20 nM. In addition, the “IC50 of GSK-3β inhibition” value in data set [4] (setting [7]) is recorded as “sub-μM”.

Take `Cc1cc(O)cc2oc(=O)c3c(O)cc(O)cc3c12` [Compound 2, alternariol]: in data set [1], the “inhibition (cytotoxic effect)” value is recorded as “lower than 35%”. Moreover, the inhibition at 100 µM turned out to be 66% in data set [2] and 79% in data set [3] (setting [6]). In data set [4], the IC50 turned out to be 130 ± 40 nM. For the same molecule, the “IC50 of GSK-3β inhibition” value in data set [4] (setting [7]) is “sub-μM”.

Turning to `Cc1cc2cc(O)cc(O)c2c2oc(=O)cc(O)c12` [Compound 1, pannorin], the “inhibition (cytotoxic effect)” value in data set [1] was “lower than 35%”. Besides, the inhibition at 100 µM was 88% in data set [2] and 54% in data set [3] (DSM347, test concentration of 100 μM, read-out: inhibition of growth of B. subtilis). In data set [4] (setting [7]), the “IC50 of GSK-3β inhibition” value is reported as “sub-μM”. For the same molecule, in data set [4] (luminescent assay, 2 μM ATP substrate solution, 60 min at 25 °C, read-out: IC50 of GSK-3β inhibition), the IC50 came out at 350 ± 40 nM. Besides, the “HMGCoA reductase inhibiting activity” value in data set [5] is given as “inhibiting activity”.

The inhibition is the relative decrease from the control value, in per cent. The term IC50 denotes the concentration that inhibits the measured activity by half.
